For experiment [1], the target named is T1, XIAP His-BIR2 (124-240/C202A/C213G) (Homo sapiens, UniProt P98170, C202A/C213G).
T1 construct: additions of His-BIR2 (124-240/C202A/C213G), Biotinylated SMAC peptide
As to the kind of experiment: XIAP-BIR2/SMAC Peptide AlphaScreen Assay. The following applies: XIAP BIR2, AlphaScreen, Table 2; read-out: BIR2 IC50. The format is binding. As for the experimental part: A. XIAP-BIR2/SMAC Peptide AlphaScreen Assay Assays were performed in white, flat-bottom, 384-well ProxiPlates (Perkin Elmer). […] The reaction was incubated at room temperature for 60 minutes. After 60 minutes, 2.5 μL of Alphascreen detection reagent (Perkin Elmer) was added to the reaction mixture and incubated at room temperature in the dark for 120 minutes. The Alphascreen signal generated by the reaction was detected on the Envision Plate Reader. […] Compounds were dissolved at 10 mM in dimethylsulfoxide (DMSO) and evaluated at eleven concentrations. IC50 values were derived by non-linear regression analysis.

Experiment [2] addresses N-His-Tb-BIR3(241-356, XIAP) (Homo sapiens, UniProt P98170). Put plainly: XIAP-BIR3 SMAC Peptide Fluorescence Polarization Assay (FPA). Type of experiment: binding.

SMILES strings stand for the structures. Read-outs that look alike come from different tables or passages of the source. Bounds are passed on as bounds.

Sequence of N-His-Tb-BIR3(241-356, XIAP) (P98170 241-356): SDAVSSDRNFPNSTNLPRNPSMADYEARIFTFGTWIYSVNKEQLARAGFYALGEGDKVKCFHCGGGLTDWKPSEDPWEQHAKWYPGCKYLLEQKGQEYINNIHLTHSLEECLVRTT
T1 sequence (P98170 124-240 C202A/C213G): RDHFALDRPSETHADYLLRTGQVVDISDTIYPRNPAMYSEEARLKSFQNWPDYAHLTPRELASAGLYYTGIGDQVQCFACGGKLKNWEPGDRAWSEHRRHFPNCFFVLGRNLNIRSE

In the case of `CN[C@@H](C)C(=O)N[C@H](C(=O)N1C[C@@H]2C[C@H]1C(=O)N[C@@H](Cc1ccc(-c3ccccc3)cc1)C(=O)N[C@H](C(=O)O)Cc1ccc(cc1)COc1cn(nn1)[C@H]1C[C@@H](C(=O)N[C@@H](Cc3ccc(-c4ccccc4)cc3)C(=O)N[C@H](C(=O)O)Cc3ccc(cc3)OCc3cn2nn3)N(C(=O)[C@@H](NC(=O)[C@H](C)NC)C(C)C)C1)C(C)C` [Compound 114], the half-maximal inhibitory concentration (IC50) in experiment [1] is less than 2000 nM; in experiment [2], less than 50 nM.
On the same counts, the results for `CN[C@@H](C)C(=O)N[C@H](C(=O)N1C[C@@H]2C[C@H]1C(=O)N[C@@H](Cc1ccc(OCc3ccccc3)cc1)C(=O)N[C@H](C(=O)O)Cc1ccc(cc1)COc1cn(nn1)[C@H]1C[C@@H](C(=O)N[C@@H](Cc3ccc(OCc4ccccc4)cc3)C(=O)N[C@H](C(=O)O)Cc3ccc(cc3)OCc3cn2nn3)N(C(=O)[C@@H](NC(=O)[C@H](C)NC)C(C)C)C1)C(C)C` [Compound 115] are 2000 to 12000 nM and less than 50 nM.
For `CC[C@H](NC(=O)[C@H](C)NC)C(=O)N1C[C@@H]2C[C@H]1C(=O)N[C@@H](Cc1ccccc1)C(=O)N[C@H](C(=O)O)Cc1ccc(cc1)OCc1cn(nn1)[C@H]1C[C@@H](C(=O)N[C@@H](Cc3ccccc3)C(=O)N[C@H](C(=O)O)Cc3ccc(cc3)OCc3cn2nn3)N(C(=O)[C@H](CC)NC(=O)[C@H](C)NC)C1` [Compound 117], in that order: less than 2000 nM and less than 50 nM.
Take `CN[C@@H](C)C(=O)N[C@@H](C)C(=O)N1C[C@@H]2C[C@H]1C(=O)N[C@@H](Cc1ccccc1)C(=O)N[C@H](C(=O)O)Cc1ccc(cc1)OCc1cn(nn1)[C@H]1C[C@@H](C(=O)N[C@@H](Cc3ccccc3)C(=O)N[C@H](C(=O)O)Cc3ccc(cc3)OCc3cn2nn3)N(C(=O)[C@H](C)NC(=O)[C@H](C)NC)C1` [Compound 118]: the IC50 in experiment [1] was more than 12000 nM; in experiment [2] it was 50 to 100 nM.
For `CN[C@@H](C)C(=O)N[C@@H](CC(C)C)C(=O)N1C[C@@H]2C[C@H]1C(=O)N[C@@H](Cc1ccccc1)C(=O)N[C@H](C(=O)O)Cc1ccc(cc1)OCc1cn(nn1)[C@H]1C[C@@H](C(=O)N[C@@H](Cc3ccccc3)C(=O)N[C@H](C(=O)O)Cc3ccc(cc3)OCc3cn2nn3)N(C(=O)[C@H](CC(C)C)NC(=O)[C@H](C)NC)C1` [Compound 119], in that order: less than 2000 nM and less than 50 nM.
On the same counts, the results for `CN[C@@H](C)C(=O)N[C@H](C(=O)N1C[C@@H]2C[C@H]1C(=O)N[C@@H](Cc1ccccc1)C(=O)N[C@H](C(=O)O)Cc1ccc(cc1)OCc1cn(nn1)[C@H]1C[C@@H](C(=O)N[C@@H](Cc3ccccc3)C(=O)N[C@H](C(=O)O)Cc3ccc(cc3)OCc3cn2nn3)N(C(=O)[C@@H](NC(=O)[C@H](C)NC)C2CCCCC2)C1)C1CCCCC1` [Compound 120] are less than 2000 nM and less than 50 nM.
On to `CN[C@@H](C)C(=O)NCC1(C(=O)N2C[C@@H]3C[C@H]2C(=O)N[C@@H](Cc2ccccc2)C(=O)N[C@H](C(=O)O)Cc2ccc(cc2)OCc2cn(nn2)[C@H]2C[C@@H](C(=O)N[C@@H](Cc4ccccc4)C(=O)N[C@H](C(=O)O)Cc4ccc(cc4)OCc4cn3nn4)N(C(=O)C3(CNC(=O)[C@H](C)NC)CC3)C2)CC1` [Compound 121], for which the IC50 is more than 12000 nM in experiment [1] and more than 100 nM in experiment [2] (XIAP BIR3, FPA, Table 2, read-out: BIR3 IC50).
As to `CN[C@@H](C)C(=O)N[C@H](C(=O)N1C[C@@H]2C[C@H]1C(=O)N[C@@H](CC1CCCCC1)C(=O)N[C@H](C(=O)O)Cc1ccc(cc1)OCc1cn(nn1)[C@H]1C[C@@H](C(=O)N[C@@H](CC3CCCCC3)C(=O)N[C@H](C(=O)O)Cc3ccc(cc3)OCc3cn2nn3)N(C(=O)[C@@H](NC(=O)[C@H](C)NC)C(C)C)C1)C(C)C` [Compound 122], the 50% inhibitory concentration (IC50) is 2000 to 12000 nM in experiment [1] and more than 100 nM in experiment [2].
For `CN[C@@H](C)C(=O)N[C@H](C(=O)N1C[C@@H]2C[C@H]1C(=O)N[C@@H](COCc1ccccc1)C(=O)N[C@H](C(=O)O)Cc1ccc(cc1)OCc1cn(nn1)[C@H]1C[C@@H](C(=O)N[C@@H](COCc3ccccc3)C(=O)N[C@H](C(=O)O)Cc3ccc(cc3)OCc3cn2nn3)N(C(=O)[C@@H](NC(=O)[C@H](C)NC)C(C)C)C1)C(C)C` [Compound 123], in that order: 2000 to 12000 nM and more than 100 nM.
On the same counts, the results for `CN[C@@H](C)C(=O)N[C@H](C(=O)N1C[C@@H]2C[C@H]1C(=O)N[C@@H](Cc1csc3ccccc13)C(=O)N[C@H](C(=O)O)Cc1ccc(cc1)OCc1cn(nn1)[C@H]1C[C@@H](C(=O)N[C@@H](Cc3csc4ccccc34)C(=O)N[C@H](C(=O)O)Cc3ccc(cc3)OCc3cn2nn3)N(C(=O)[C@@H](NC(=O)[C@H](C)NC)C(C)C)C1)C(C)C` [Compound 124] are less than 2000 nM and less than 50 nM.
For `CN[C@@H](C)C(=O)N[C@H](C(=O)N1C[C@@H]2C[C@H]1C(=O)N[C@@H](Cc1c[nH]c3ccccc13)C(=O)N[C@H](C(=O)O)Cc1ccc(cc1)OCc1cn(nn1)[C@H]1C[C@@H](C(=O)N[C@@H](Cc3c[nH]c4ccccc34)C(=O)N[C@H](C(=O)O)Cc3ccc(cc3)OCc3cn2nn3)N(C(=O)[C@@H](NC(=O)[C@H](C)NC)C(C)C)C1)C(C)C` [Compound 125], in that order: less than 2000 nM and less than 50 nM.
Turning to `C=CCOc1ccc(C[C@@H]2NC(=O)[C@@H]3C[C@@H](CN3C(=O)[C@@H](NC(=O)[C@H](C)NC)C(C)C)n3cc(nn3)COc3ccc(cc3)C[C@@H](C(=O)O)NC(=O)[C@H](Cc3ccc(OCC=C)cc3)NC(=O)[C@@H]3C[C@@H](CN3C(=O)[C@@H](NC(=O)[C@H](C)NC)C(C)C)n3cc(nn3)COc3ccc(cc3)C[C@@H](C(=O)O)NC2=O)cc1` [Compound 126], the IC50 lay in the range of 2000 to 12000 nM in experiment [1] and 50 to 100 nM in experiment [2].
On the same counts, the results for `CN[C@@H](C)C(=O)N[C@H](C(=O)N1C[C@@H]2C[C@H]1C(=O)N[C@@H](Cc1cccc(C(F)(F)F)c1)C(=O)N[C@H](C(=O)O)Cc1ccc(cc1)OCc1cn(nn1)[C@H]1C[C@@H](C(=O)N[C@@H](Cc3cccc(C(F)(F)F)c3)C(=O)N[C@H](C(=O)O)Cc3ccc(cc3)OCc3cn2nn3)N(C(=O)[C@@H](NC(=O)[C@H](C)NC)C(C)(C)C)C1)C(C)(C)C` [Compound 129] are less than 2000 nM and less than 50 nM.
On the same counts, the results for `CN[C@@H](C)C(=O)N[C@H](C(=O)N1C[C@@H]2C[C@H]1C(=O)N[C@@H](Cc1cccc(C(F)(F)F)c1)C(=O)N[C@H](C(=O)O)Cc1ccc(cc1)OCc1cn(nn1)[C@H]1C[C@@H](C(=O)N[C@@H](Cc3cccc(C(F)(F)F)c3)C(=O)N[C@H](C(=O)O)Cc3ccc(cc3)OCc3cn2nn3)N(C(=O)[C@@H](NC(=O)[C@H](C)NC)C2CCCCC2)C1)C1CCCCC1` [Compound 130] are 2000 to 12000 nM and less than 50 nM.
On the same counts, the results for `CN[C@@H](C)C(=O)N[C@H](C(=O)N1C[C@@H]2C[C@H]1C(=O)N[C@@H](Cc1ccc(OC)c(OC)c1)C(=O)N[C@H](C(=O)O)Cc1ccc(cc1)OCc1cn(nn1)[C@H]1C[C@@H](C(=O)N[C@@H](Cc3ccc(OC)c(OC)c3)C(=O)N[C@H](C(=O)O)Cc3ccc(cc3)OCc3cn2nn3)N(C(=O)[C@@H](NC(=O)[C@H](C)NC)C(C)(C)C)C1)C(C)(C)C` [Compound 131] are 2000 to 12000 nM and more than 100 nM.
Take `CN[C@@H](C)C(=O)N[C@H](C(=O)N1C[C@@H]2C[C@H]1C(=O)N[C@@H](Cc1ccc(OC)c(OC)c1)C(=O)N[C@H](C(=O)O)Cc1ccc(cc1)OCc1cn(nn1)[C@H]1C[C@@H](C(=O)N[C@@H](Cc3ccc(OC)c(OC)c3)C(=O)N[C@H](C(=O)O)Cc3ccc(cc3)OCc3cn2nn3)N(C(=O)[C@@H](NC(=O)[C@H](C)NC)C2CCCCC2)C1)C1CCCCC1` [Compound 132]: the IC50 in experiment [1] was more than 12000 nM; in experiment [2] it was more than 100 nM.

The record behind these values is patent US20140309265A1, “MACROCYCLIC COMPOUNDS FOR INHIBITION OF INHIBITORS OF APOPTOSIS” (Ensemble Therapeutics, priority 2011, published 2014).
